Results from patent US12054498B2, “Heteroaromatic macrocyclic ether chemotherapeutic agents” (Nuvalent, Inc., priority 2020, dated 2024).

Assays:
TRKA-wt = target: T1, TRKA-wt (Homo sapiens, UniProt P04629); experiment: Biochemical kinase assay, TRKA-wt kinase domain; details: apparent inhibitory constant, Morrison equation; ATP 2 mM in substrate solution; read-out: TRKA-wt Ki^app
T1 construct: or TRKA-wt (1 nM, BPS Bio, 40280) kinase domains in buffer; purchased BPS Bio 40280
In short: (§1)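 Kinase domains (in kinase solution: ROS1-G2032R 0.5 nM, ROS1-wt 0.6 nM, TRKA 1 nM, ALK L1196M/G1202R 3 nM) were mixed with compound and a substrate solution of 2 mM ATP plus 26 μM fluorogenic AQT0101 (ALK, ROS1) or AQT0104 (TRKA) in HEPES pH 7.5/MgCl2. Fluorescence was followed for 120 min at 30° C; Ki^app was obtained by Morrison fit of initial rates.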

[1] = target: T2, Ba/F3 cells CD74-ROS1 wild-type (wt) (Homo sapiens, UniProt P08922); experiment: Ba/F3 cell proliferation assay, CD74-ROS1 wild-type; type: cell-based; details: 72 hours, CellTiter-Glo
T2 construct: fusion of the C-terminus of ROS1 with the N-terminus of various partner proteins; host or cells: Ba/F3 (RIKEN), retroviral pMSCV-puro; the other entry of the earlier key: CD74 (P04233, HLA class II histocompatibility antigen gamma chain)
In short: (§2)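 IL-3-independent Ba/F3 CD74-ROS1 lines, puromycin-selected monoclones; 1,000 cells/well, plated 1 d before dosing; 3-fold serial dilutions, 72 h; CellTiter-Glo luminescence; IC50 by 4-parameter logistic regression.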

[2] = tested on: TPM3-NTRK1-wt IC50 / primary target IC50 (e.g. CD74-ROS1-wt); experiment: TRKA selectivity in Ba/F3 cells (TRKA potency divided by primary target potency); type: cell-based; details: for TPM3-NTRK1-wt/CD74-ROS1-G2032R selectivity ratio: TRKA potency / CD74-ROS1-G2032R potency; for TPM3-NTRK1-wt/CD74-ROS1-wt selectivity ratio: TRKA potency / CD74-ROS1-wt potency; for TPM3-NTRK1-wt/EML4-ALK-L1196M-G1202R selectivity ratio: TRKA potency / EML4-ALK-L1196M-G1202R potency; for TPM3-NTRK1-wt/EML4-ALK-wt selectivity ratio: TRKA potency / EML4-ALK-wt potency
Method: TRKA selectivity was calculated by dividing a compound's TRKA potency by its primary target potency (e.g. TPM3-NTRK1-wt IC50/CD74-ROS1-wt IC50). Compound selectivity can be interpreted by binning ratio values: bin A for very high selectivity, ratio >30-fold; bin B for high selectivity, ratio >10-fold; bin C for moderate selectivity, ratio ≥1; and bin D for low selectivity, ratio <1. […] (nd=not determined).

ROS1-wt = target: T3, ROS1-wt (Homo sapiens, UniProt P08922); experiment: Biochemical kinase assay, ROS1-wt kinase domain; details: apparent inhibitory constant, Morrison equation; ATP 2 mM in substrate solution; read-out: ROS1-wt Ki^app
T3 construct: purchased Carna 08-163
In short: (§3)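 Compounds, as 100-fold DMSO stocks, were dispensed first, then substrate mix was added (ATP 2 mM, AQT0101 26 μM, in 50 mM HEPES pH 7.5/10 mM MgCl2). Reactions ran at 30 °C with fluorescence logged every 2 min over 120 min. Apparent inhibition constants came from fitting rates to Morrison's tight-binding equation.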

ALK L1196M/G1202R = target: T4, ALK L1196M/G1202R (Homo sapiens, UniProt Q9UM73, G1202R/L1196M); experiment: Biochemical kinase assay, ALK L1196M/G1202R kinase domain; details: apparent inhibitory constant, Morrison equation; ATP 2 mM in substrate solution; read-out: ALK-L1196M-G1202R Ki^app
T4 construct: purchased SignalChem A19-12NG
In short: as §1

ALK-wt = target: T5, ALK-wt (Homo sapiens, UniProt Q9UM73); experiment: Biochemical kinase assay, ALK-wt kinase domain; details: apparent inhibitory constant, Morrison equation; ATP 2 mM in substrate solution; read-out: ALK-wt Ki^app
T5 construct: purchased Carna 08-518
In short: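 Apparent Ki values come from fitting initial reaction rates against inhibitor concentration to the Morrison equation. Rates were taken from the linear phase of fluorogenic substrate phosphorylation (AQT0101 for ALK and ROS1, AQT0104 for TRKA; 26 μM in substrate solution with 2 mM ATP), monitored at 485 nm over 120 min at 30° C.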

Ba/F3 cells TPM3-TRKA = target: T6, Ba/F3 cells TPM3-TRKA (Homo sapiens, UniProt P04629); experiment: Ba/F3 cell proliferation assay, TPM3-TRKA; type: cell-based; details: 72 hours, CellTiter-Glo, read-out: TPM3-NTRK1-wt IC50
T6 construct: host or cells: Ba/F3 (RIKEN), retroviral pMSCV-puro; the other entry of the earlier key: TPM3 (P06753, Tropomyosin alpha-3 chain)
In short: (§4)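 IL-3-independent Ba/F3 lines stably expressing the fusion kinase (retroviral, puromycin-selected), 1,000 cells/well, treated with 3-fold compound dilutions for 72 h. Viability by CellTiter-Glo luminescence; IC50 from four-parameter logistic fit of percent inhibition.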

[3] = target: T7, Ba/F3 cells EML4-ALK wt (variant 1) (Homo sapiens, UniProt Q9UM73); experiment: Ba/F3 cell proliferation assay, EML4-ALK wt (variant 1); type: cell-based; details: 72 hours, CellTiter-Glo
T7 construct: echinoderm microtubule-associated protein-like 4 (EML4) gene and the ALK tyrosine kinase domain; host or cells: Ba/F3 (RIKEN), retroviral pMSCV-puro; the other entry of the earlier key: EML4 (Q9HC35, Echinoderm microtubule-associated protein-like 4)
In short: as §4

ROS1-G2032R = target: T8, ROS1-G2032R (Homo sapiens, UniProt P08922, G2032R); experiment: Biochemical kinase assay, ROS1-G2032R kinase domain; details: apparent inhibitory constant, Morrison equation; ATP 2 mM in substrate solution; read-out: ROS1-G2032R Ki^app
T8 construct: purchased SignalChem R14-12BG
In short: as §3

[4] = target: T9, Ba/F3 cells CD74-ROS1 G2032R (Homo sapiens, UniProt P08922, G2032R); experiment: Ba/F3 cell proliferation assay, CD74-ROS1 G2032R; type: cell-based; details: 72 hours, CellTiter-Glo
T9 construct: fusion of the C-terminus of ROS1 with the N-terminus of various partner proteins; host or cells: Ba/F3 (RIKEN), retroviral pMSCV-puro; the other entry of the earlier key: CD74 (P04233, HLA class II histocompatibility antigen gamma chain)
In short: as §2

[5] = target: T10, Ba/F3 cells EML4-ALK L1196M/G1202R (variant 1) (Homo sapiens, UniProt Q9UM73, G1202R/L1196M); experiment: Ba/F3 cell proliferation assay, EML4-ALK L1196M/G1202R (variant 1); type: cell-based; details: 72 hours, CellTiter-Glo
T10 construct: echinoderm microtubule-associated protein-like 4 (EML4) gene and the ALK tyrosine kinase domain; host or cells: Ba/F3 (RIKEN), retroviral pMSCV-puro; the other entry of the earlier key: EML4 (Q9HC35, Echinoderm microtubule-associated protein-like 4)
In short: as §4

T6 sequence (P04629 510-796 limits assumed): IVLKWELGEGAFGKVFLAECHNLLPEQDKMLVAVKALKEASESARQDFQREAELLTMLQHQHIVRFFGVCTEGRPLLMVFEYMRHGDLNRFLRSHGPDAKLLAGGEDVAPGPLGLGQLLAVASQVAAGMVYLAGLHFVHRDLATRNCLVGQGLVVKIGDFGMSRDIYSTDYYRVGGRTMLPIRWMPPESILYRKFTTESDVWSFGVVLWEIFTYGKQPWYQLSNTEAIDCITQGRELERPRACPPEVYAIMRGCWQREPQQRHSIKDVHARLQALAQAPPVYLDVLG
T1 sequence (P04629 510-781 limits assumed): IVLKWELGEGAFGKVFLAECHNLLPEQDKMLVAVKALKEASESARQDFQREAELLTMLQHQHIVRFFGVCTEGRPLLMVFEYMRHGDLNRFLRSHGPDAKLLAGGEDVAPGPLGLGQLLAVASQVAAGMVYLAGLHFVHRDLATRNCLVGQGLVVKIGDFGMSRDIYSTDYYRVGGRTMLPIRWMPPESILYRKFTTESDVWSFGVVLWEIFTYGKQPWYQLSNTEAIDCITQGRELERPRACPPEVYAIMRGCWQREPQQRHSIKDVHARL
T2 sequence (P08922 1883-2347 limits assumed): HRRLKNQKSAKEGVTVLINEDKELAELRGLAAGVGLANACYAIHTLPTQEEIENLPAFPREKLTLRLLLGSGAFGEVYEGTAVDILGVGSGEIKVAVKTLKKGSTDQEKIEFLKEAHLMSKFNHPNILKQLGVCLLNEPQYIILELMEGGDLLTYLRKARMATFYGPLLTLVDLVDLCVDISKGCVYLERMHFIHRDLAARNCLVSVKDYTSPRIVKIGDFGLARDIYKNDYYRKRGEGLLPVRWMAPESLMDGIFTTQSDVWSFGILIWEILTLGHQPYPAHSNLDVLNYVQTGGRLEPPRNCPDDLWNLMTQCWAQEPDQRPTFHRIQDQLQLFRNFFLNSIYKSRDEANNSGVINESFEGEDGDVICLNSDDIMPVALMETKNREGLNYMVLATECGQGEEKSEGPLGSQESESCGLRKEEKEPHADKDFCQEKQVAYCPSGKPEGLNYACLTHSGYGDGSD
T7 sequence (Q9UM73 with tags, fused parts or gaps): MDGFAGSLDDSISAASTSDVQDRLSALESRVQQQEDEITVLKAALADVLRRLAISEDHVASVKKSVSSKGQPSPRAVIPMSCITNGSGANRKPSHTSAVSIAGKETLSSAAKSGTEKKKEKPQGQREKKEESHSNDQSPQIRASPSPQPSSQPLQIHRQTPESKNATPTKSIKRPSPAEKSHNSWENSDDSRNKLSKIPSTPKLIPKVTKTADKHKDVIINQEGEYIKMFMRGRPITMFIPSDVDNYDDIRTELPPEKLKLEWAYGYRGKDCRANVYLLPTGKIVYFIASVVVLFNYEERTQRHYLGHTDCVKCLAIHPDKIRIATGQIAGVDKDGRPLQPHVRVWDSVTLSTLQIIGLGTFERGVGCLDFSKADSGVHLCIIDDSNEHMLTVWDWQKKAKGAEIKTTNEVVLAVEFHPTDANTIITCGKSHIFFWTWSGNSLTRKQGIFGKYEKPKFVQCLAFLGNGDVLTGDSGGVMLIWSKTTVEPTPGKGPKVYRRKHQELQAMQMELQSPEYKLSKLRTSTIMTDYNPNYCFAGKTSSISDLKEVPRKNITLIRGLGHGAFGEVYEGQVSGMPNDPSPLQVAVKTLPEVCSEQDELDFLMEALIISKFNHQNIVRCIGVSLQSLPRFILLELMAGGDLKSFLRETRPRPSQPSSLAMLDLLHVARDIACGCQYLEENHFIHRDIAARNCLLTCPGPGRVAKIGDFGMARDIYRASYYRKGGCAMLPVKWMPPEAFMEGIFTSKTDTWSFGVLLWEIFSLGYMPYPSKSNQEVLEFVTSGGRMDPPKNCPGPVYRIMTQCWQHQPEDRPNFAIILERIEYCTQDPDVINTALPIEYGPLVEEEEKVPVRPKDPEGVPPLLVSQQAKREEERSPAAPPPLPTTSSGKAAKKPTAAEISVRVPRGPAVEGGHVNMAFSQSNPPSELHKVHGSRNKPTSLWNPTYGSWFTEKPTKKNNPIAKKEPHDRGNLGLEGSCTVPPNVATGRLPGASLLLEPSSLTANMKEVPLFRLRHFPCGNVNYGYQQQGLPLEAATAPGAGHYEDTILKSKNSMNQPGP
T10 sequence (Q9UM73 with tags, fused parts or gaps L1196M/G1202R): as the sequence (Q9UM73 with tags, fused parts or gaps) above, with L635M, G641R counted along it
T3 sequence (P08922 1945-2222 limits assumed): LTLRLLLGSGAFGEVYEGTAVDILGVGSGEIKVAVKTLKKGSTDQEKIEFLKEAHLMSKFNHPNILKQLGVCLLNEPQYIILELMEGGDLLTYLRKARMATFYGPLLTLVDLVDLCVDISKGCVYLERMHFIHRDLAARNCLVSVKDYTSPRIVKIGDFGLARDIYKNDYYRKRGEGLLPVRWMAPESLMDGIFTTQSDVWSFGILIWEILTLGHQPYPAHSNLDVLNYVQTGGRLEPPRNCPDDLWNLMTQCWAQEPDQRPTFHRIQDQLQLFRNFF
T9 sequence (P08922 1883-2347 G2032R limits assumed): as the sequence (P08922 1883-2347 limits assumed) above, with G150R counted along it
T4 sequence (Q9UM73 1116-1392 L1196M/G1202R limits assumed): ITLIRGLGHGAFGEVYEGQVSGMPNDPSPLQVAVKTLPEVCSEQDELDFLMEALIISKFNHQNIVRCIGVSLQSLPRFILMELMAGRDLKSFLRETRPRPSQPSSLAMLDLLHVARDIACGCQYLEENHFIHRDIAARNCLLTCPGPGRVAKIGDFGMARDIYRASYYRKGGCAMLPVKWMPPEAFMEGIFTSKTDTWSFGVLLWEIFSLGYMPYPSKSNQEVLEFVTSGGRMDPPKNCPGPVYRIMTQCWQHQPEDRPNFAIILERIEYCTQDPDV
T5 sequence (Q9UM73 1116-1392 limits assumed): as the sequence (Q9UM73 1116-1392 L1196M/G1202R limits assumed) above, with M81L, R87G counted along it
T8 sequence (P08922 1945-2222 G2032R limits assumed): as the sequence (P08922 1945-2222 limits assumed) above, with G88R counted along it

SMILES	Ki (TRKA-wt) [nM]	IC50 [1] [nM]	Ki (ROS1-wt) [nM]	Ki (ALK L1196M/G1202R) [nM]	Ki (ALK-wt) [nM]	IC50 (Ba/F3 cells TPM3-TRKA) [nM]	IC50 [3] [nM]	Ki (ROS1-G2032R) [nM]	IC50 [4] [nM]	IC50 [5] [nM]	TPM3-NTRK1-wt/CD74-ROS1-G2032R selectivity ratio [2]	TPM3-NTRK1-wt/CD74-ROS1-wt selectivity ratio [2]	TPM3-NTRK1-wt/EML4-ALK-L1196M-G1202R selectivity ratio [2]	TPM3-NTRK1-wt/EML4-ALK-wt selectivity ratio [2]
Cc1nn(CC(C)C)c2c1Cn1ncnc1-c1ccc(F)cc1[C@@H](C)Oc1cc-2cnc1N [Example 79, (19R)-16-fluoro-5,19-dimethyl-3-(2-methylpropyl)-20-oxa-3,4,8,9,11,23-hexaazapentacyclo [19.3.1.0^2,^6.0^8,^12.0^13,^18]pentacosa-1(2.4),2(6),4,9,11,13,15,17,21(25),22-decaen-22-amine]	> 500	0.1 to 50	< 50	50 to 500	< 50	> 500	0.1 to 50	> 500	> 500	> 500	B (bin B for high selectivity, ratio >10-fold)	A (bin A for very high selectivity, ratio >30-fold)	C (bin C for moderate selectivity, ratio ≥1)	A (bin A for very high selectivity, ratio >30-fold)
CCn1nc(C(F)(F)F)c2c1-c1cnc(N)c(c1)O[C@H](C)c1cc(F)ccc1-c1nn(C)nc1C2 [Example 80, (19R)-3-ethyl-16-fluoro-10,19-dimethyl-5-(trifluoromethyl)-20-oxa-3,4,9,10,11,23-hexaazapentacyclo[19.3.1.0^2,^6.0^8,^12.0^13,^18]pentacosa-1(24),2(6),4,8,11,13,15,17,21(25),22-decaen-22-amine]	> 500	0.1 to 50	< 50	50 to 500	< 50	> 500	50 to 500	50 to 500	0.1 to 50	> 500	A (bin A for very high selectivity, ratio >30-fold)	A (bin A for very high selectivity, ratio >30-fold)	C (bin C for moderate selectivity, ratio ≥1)	B (bin B for high selectivity, ratio >10-fold)
Cc1nn(CC2CC2)c2c1Cc1nn(C)nc1-c1c(F)cc(F)cc1[C@@H](C)Oc1cc-2cnc1N [Example 82, (19R)-3-(cyclopropylmethyl)-14,16-difluoro-5,10,19-trimethyl-20-oxa3,4,9,10,11,23-hexaazapentacyclo[19.3.1.0^2,^6.0^8,^12.0^13,^18]pentacosa 1(24),2(6),4,8,11,13,15,17,21(25),22-decaen-22-amine]	> 500	0.1 to 50	< 50	< 50	< 50	> 500	0.1 to 50	< 50	0.1 to 50	50 to 500	A (bin A for very high selectivity, ratio >30-fold)	A (bin A for very high selectivity, ratio >30-fold)	A (bin A for very high selectivity, ratio >30-fold)	A (bin A for very high selectivity, ratio >30-fold)

Now from value to compound, other results behind:

Ki (TRKA-wt) [nM]	IC50 [1] [nM]	Ki (ROS1-wt) [nM]	Ki (ALK L1196M/G1202R) [nM]	Ki (ALK-wt) [nM]	IC50 (Ba/F3 cells TPM3-TRKA) [nM]	IC50 [3] [nM]	Ki (ROS1-G2032R) [nM]	IC50 [4] [nM]	IC50 [5] [nM]	SMILES	TPM3-NTRK1-wt/CD74-ROS1-G2032R selectivity ratio [2]	TPM3-NTRK1-wt/CD74-ROS1-wt selectivity ratio [2]	TPM3-NTRK1-wt/EML4-ALK-L1196M-G1202R selectivity ratio [2]	TPM3-NTRK1-wt/EML4-ALK-wt selectivity ratio [2]
50 to 500	0.1 to 50	< 50	< 50	< 50	50 to 500	0.1 to 50	< 50	0.1 to 50	0.1 to 50	Cc1nc2n(n1)Cc1cnn(CC3CC3)c1-c1cnc(N)c(c1)O[C@H](C)c1cc(F)ccc1-2 [Example 75, (19R)-3-(cyclopropylmethyl)-16-fluoro-10,19-dimethyl-20-oxa-3,4,8,9,11,23-hexaazapentacyclo[19.3.10^2,^6.0^8,^12.0^13,^18]pentacosa-1(24),2(6),4,9,11,13,15,17,21(25),22-decaen-22-amine]	A (bin A for very high selectivity, ratio >30-fold)	A (bin A for very high selectivity, ratio >30-fold)	B (bin B for high selectivity, ratio >10-fold)	A (bin A for very high selectivity, ratio >30-fold)
> 500	0.1 to 50	< 50	< 50	< 50	> 500	0.1 to 50	< 50	0.1 to 50	0.1 to 50	Cc1nc2c(o1)-c1ccc(F)cc1[C@@H](C)Oc1cc(cnc1N)-c1c(cnn1CC1CC1)C2 [Example 76, (19R)-3-(cyclopropylmethyl)-16-fluoro-10,19-dimethyl-11,20-dioxa-3,4,9,23-tetraazapentacyclo[19.3.1,0^2,^6.0^8,^12.0^13,^18]pentacosa-1(24),2(6),4,8(12),9,13,15,17,21(25),22-decaen-22-amine]	A (bin A for very high selectivity, ratio >30-fold)	A (bin A for very high selectivity, ratio >30-fold)	A (bin A for very high selectivity, ratio >30-fold)	A (bin A for very high selectivity, ratio >30-fold)
